Results on eleven molecules are retold here after PubChem BioAssay (NCI).

Test systems include A498 renal; DU-145 prostate; HCT-15 colon; K-562 leukemia; M14 melanoma; MDA-MB-231 breast; RPMI-8226 leukemia; UO-31 renal.
Holding throughout (assay): NCI tumour cell line growth inhibition, 48 h

Values joined by “and” are separate entries in the source; they are usually repeats but may differ in a detail not shown here. Equal values may be shown once.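 Step 1: Grow cells in 96-well plates. Step 2: Expose to compound for 48 hours at 5 concentrations. Step 3: Interpolate endpoints linearly; if unreached, use highest concentration. Abbreviation: GI50, concentration required for 50% inhibition of growth. TGI marks complete inhibition of growth.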

Regarding `Cc1c(N)nc([C@H](CC(N)=O)NC[C@H](N)C(N)=O)nc1C(=O)N[C@H](C(=O)N[C@H](C)[C@@H](O)CC(=O)N[C@H](C(=O)NC(O[C@@H]1O[C@@H](C)[C@@H](N)[C@@H](O)[C@H]1O)C(O)c1nc(-c2nc(C(=O)NCCCCN)cs2)cs1)[C@@H](C)O)[C@@H](O[C@@H]1O[C@@H](CO)[C@@H](O)[C@H](O)[C@@H]1O[C@H]1O[C@H](CO)[C@@H](O)[C@H](OC(N)=O)[C@@H]1O)c1c[nH]cn1` (some centres undefined), the TGI in the test with A498 renal, in the test with DU-145 prostate, in the test with HCT-15 colon, in the test on K-562 leukemia, with M14 melanoma and in the test with MDA-MB-231 breast was more than 50 µM throughout. The TGI in the test with RPMI-8226 leukemia and in the test on UO-31 renal was more than 50 µM throughout.

In the case of `CCCCCCCCCCCC[N+](C)(C)Cc1ccccc1`, the GI50 is 8.06 µM in the test with A498 renal; 3.61 µM with DU-145 prostate; 13.1 µM in the test on HCT-15 colon; 1.56 µM in the test on K-562 leukemia; 1.92 µM in the test on M14 melanoma; 1.62 µM with MDA-MB-231 breast. Further, the GI50 with RPMI-8226 leukemia was 1.28 µM; with UO-31 renal, 10 µM. The TGI in the test on A498 renal was 24.8 µM; in the test with DU-145 prostate, 13.6 µM; in the test on HCT-15 colon, 34.3 µM; with K-562 leukemia it was 6.63 µM; in the test with M14 melanoma, 4.32 µM; with MDA-MB-231 breast, 3.81 µM. Further, the TGI with RPMI-8226 leukemia worked out at 3.31 µM; in the test on UO-31 renal, 25.9 µM.

For `Nc1ncn(C2OC(COP(=O)(O)O)C(O)C2O)c(=O)n1` (centres undefined), the TGI in the test on A498 renal, in the test with DU-145 prostate, in the test on HCT-15 colon, with K-562 leukemia, in the test on M14 melanoma and in the test with MDA-MB-231 breast was more than 100 µM throughout. Moreover, the TGI in the test on RPMI-8226 leukemia and in the test with UO-31 renal was more than 100 µM throughout.

Take `O=C1C=C2C=CC3CC2(O1)C1CCCCN31` (centres undefined): the GI50 with A498 renal is 10.3 µM and 28.4 µM and 48.9 µM; with HCT-15 colon, 11.4 µM and 11.8 µM and 31 µM; in the test on M14 melanoma, 28.1 µM and 24 µM and 54.4 µM; in the test with MDA-MB-231 breast, 19 µM and 21.6 µM and 39.7 µM; in the test with RPMI-8226 leukemia it was 7.45 µM and 15.1 µM and 29.3 µM; with UO-31 renal, 14.5 µM and 13.8 µM and 38.3 µM. The TGI in the test on A498 renal was 43.9 µM and 91.5 µM and > 100 µM; with DU-145 prostate, 50.1 µM and 36.1 µM and > 100 µM; with HCT-15 colon it was 46.4 µM and 29.4 µM and > 100 µM; in the test with K-562 leukemia, > 100 µM and 41.8 µM; in the test on M14 melanoma it was more than 100 µM; with MDA-MB-231 breast, > 100 µM and 67.9 µM. Further, the TGI in the test with RPMI-8226 leukemia was 58.9 µM and 45.7 µM and > 100 µM; in the test with UO-31 renal, more than 100 µM.

For the molecule `CCNc1cc2oc(=O)cc(C(F)(F)F)c2cc1C`, the TGI in the test with A498 renal, in the test on DU-145 prostate, in the test on HCT-15 colon, in the test on K-562 leukemia, in the test with M14 melanoma and in the test with MDA-MB-231 breast was more than 100 µM throughout. In addition, the TGI in the test with RPMI-8226 leukemia and in the test on UO-31 renal was more than 100 µM in each case.

On to `COc1cccc(OC(=O)c2ccc(C(F)(F)F)nc2Nc2c(C)cccc2Cl)c1`, for which the GI50 in the test with A498 renal is 15 µM; in the test on DU-145 prostate, 32.1 µM; with HCT-15 colon it was 54.1 µM; in the test with K-562 leukemia, 36.5 µM; in the test on M14 melanoma, 38.9 µM; in the test with MDA-MB-231 breast, 12.9 µM. Moreover, the GI50 in the test on RPMI-8226 leukemia was 35.8 µM; in the test with UO-31 renal it was 15.1 µM. The TGI in the test with A498 renal was 41.3 µM; in the test on DU-145 prostate it was more than 100 µM; with HCT-15 colon it was more than 100 µM; in the test with K-562 leukemia, more than 100 µM; with M14 melanoma, more than 100 µM; with MDA-MB-231 breast, 42.5 µM. In addition, the results for the TGI in the test with RPMI-8226 leukemia and in the test on UO-31 renal were more than 100 µM and 32 µM, respectively.

For the molecule `COC12C=C/C(=C(/C(=O)OCCSc3ccnn3C)C(=O)CCCCCCCCC3(OC)C=C/C(=C(/C(=O)OCCSc4ccnn4C)C(=O)CCCCCCCC1)O3)O2`, the GI50 in the test on A498 renal is 0.645 µM; in the test with DU-145 prostate, 1.31 µM; in the test with HCT-15 colon it was 1.08 µM; with K-562 leukemia it was 1.05 µM; with M14 melanoma, 0.873 µM; in the test with MDA-MB-231 breast, 1.05 µM. In addition, the GI50 in the test with RPMI-8226 leukemia is 0.895 µM; in the test with UO-31 renal, 0.942 µM. Further, the TGI with A498 renal was 2.2 µM; in the test with DU-145 prostate it was more than 32.5 µM; in the test on HCT-15 colon, 4.39 µM; in the test on K-562 leukemia, 18 µM; with M14 melanoma, 2.4 µM; with MDA-MB-231 breast, 3.06 µM. Also, the TGI stood at 2.65 µM in the test with RPMI-8226 leukemia and 11.1 µM in the test with UO-31 renal.

Regarding `c1cc(CN2CCCNCCNCCCNCC2)ccc1CN1CCCNCCNCCCNCC1`, the GI50 with A498 renal, with DU-145 prostate, in the test with HCT-15 colon, in the test with K-562 leukemia, with M14 melanoma and in the test with MDA-MB-231 breast was more than 100 µM in each case. The GI50 with RPMI-8226 leukemia and in the test with UO-31 renal was more than 100 µM each time. The TGI in the test with A498 renal, in the test on DU-145 prostate, in the test with HCT-15 colon, in the test on K-562 leukemia, with M14 melanoma and in the test on MDA-MB-231 breast was more than 100 µM each time. In addition, the TGI with RPMI-8226 leukemia and with UO-31 renal was more than 100 µM each time.

With `COC(NC(N)=O)C(=O)O` (centres undefined), the TGI in the test on A498 renal, with DU-145 prostate, in the test on HCT-15 colon, with K-562 leukemia, in the test on M14 melanoma and in the test with MDA-MB-231 breast was more than 100 µM in each case. In addition, the TGI with RPMI-8226 leukemia and in the test with UO-31 renal was more than 100 µM throughout.

Take `O=C(O)C1CCN(Cc2oc(CO)cc(=O)c2O)C1` (centres undefined): the TGI in the test with A498 renal, in the test with DU-145 prostate, in the test with HCT-15 colon, in the test with K-562 leukemia, with M14 melanoma and in the test with MDA-MB-231 breast was more than 100 µM each time. Further, the TGI with RPMI-8226 leukemia and in the test on UO-31 renal was more than 100 µM in each case.

As for `Cc1ccc(-c2c(C#N)[n+](=O)c3cc(F)c(F)cc3n2[O-])cc1`, the GI50 was 21.1 µM with A498 renal; 14.5 µM in the test on DU-145 prostate; 1.2 µM with HCT-15 colon; 1.64 µM with K-562 leukemia; 2.18 µM in the test on M14 melanoma; 1.81 µM in the test with MDA-MB-231 breast. The GI50 in the test on RPMI-8226 leukemia was 1.49 µM; in the test with UO-31 renal, 9.79 µM. In addition, the TGI with A498 renal turned out to be 36.5 µM; in the test with DU-145 prostate, 30.9 µM; in the test on HCT-15 colon, 3.75 µM; in the test on K-562 leukemia, 4.29 µM; in the test with M14 melanoma, 5.73 µM; with MDA-MB-231 breast, 3.98 µM. In addition, the TGI in the test on RPMI-8226 leukemia is 6.99 µM; in the test on UO-31 renal it was 37.7 µM.
